Assay results reported in US20020193587A1, “Penicillin crystal and process for producing the same” (priority 2000, published 2002).

assay: Storage stability in sealed test tubes at room temperature for 1 year, purity determined by HPLC; format: physicochemical; settings: 10 g in sealed test tube, stored at room temperature (5 to 35° C.) for 1 year, starting purity 100% (Examples 1, 2), 79% (Comparative Example 1), 93% (Comparative Example 2)
Procedure: A test tube was charged with 10 g of each of the TAZB crystal of Example 1 (purity 100%), the TAZB crystal of Example 2 (purity 100%), the TAZB oily substance of Comparative Example 1 (purity 79%), and the TAZB amorphous powder of Comparative Example 2 (purity 93%). The test tubes were sealed and stored at room temperature (5 to 35° C.) for 1 year after which their purity was determined by HPLC.

purity after storage	Substance
52%	diphenylmethyl 2-methyl-2-triazolylmethylpenam-3-carboxylate 1,1-dioxide [Comparative Example 1]
81%	diphenylmethyl 2-methyl-2-triazolylmethylpenam-3-carboxylate 1,1-dioxide [Comparative Example 2]
99%	diphenylmethyl 2-methyl-2-triazolylmethylpenam-3-carboxylate 1,1-dioxide [Example 2]
